Results from paper PMC9668914, “Understanding VPAC receptor family peptide binding and selectivity” (Nature Communications, 2022).

What was measured:
PAC1R = biological target: T1, PAC1R (Homo sapiens, UniProt P41586); parameters: method as in PMID 8995389; details: cited from earlier work
T1 construct: An HA signal peptide was inserted in place of the native signal peptide of the receptors; HA signal peptide (replaces the native signal peptide) (N); 3C protease cleavage sites (between FLAG and receptor, and between receptor and His) (internal); expressed in transfected cells; host or cells: COS-7 (transient, PEI)
T1 sequence (P41586 21-468): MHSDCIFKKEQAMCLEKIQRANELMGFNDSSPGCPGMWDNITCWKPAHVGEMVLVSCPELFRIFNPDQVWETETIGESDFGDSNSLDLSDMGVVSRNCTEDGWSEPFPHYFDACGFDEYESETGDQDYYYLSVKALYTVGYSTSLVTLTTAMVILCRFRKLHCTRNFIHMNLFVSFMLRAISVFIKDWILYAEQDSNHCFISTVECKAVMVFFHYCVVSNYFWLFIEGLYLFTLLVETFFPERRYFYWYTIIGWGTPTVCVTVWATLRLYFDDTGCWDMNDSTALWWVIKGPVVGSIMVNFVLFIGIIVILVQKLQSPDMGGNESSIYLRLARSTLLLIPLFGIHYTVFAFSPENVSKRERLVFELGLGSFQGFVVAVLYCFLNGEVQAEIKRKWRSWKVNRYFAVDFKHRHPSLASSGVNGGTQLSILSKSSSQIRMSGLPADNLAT

[1] = test system: PAC1R WT, C25A, C219A, C25A/C219A; experiment: cAMP accumulation, cysteine mutagenesis (Fig. 6e, Supplementary Fig. 13d-f); type: cell-based; details: COS-7, mean of n = 3
Experimental: (§1) Maps are shown in transparent and model backbones are shown in ribbon format. The relevant cysteines are shown as stick models, with the putative disulfide bond present. […] The data for panels d and e are the mean ± SEM, n = 3 independent experiments. Differences in potency between WT and mutant receptors was assessed using a one-way ANOVA and Dunnett’s post-test. […] Interactions are listed by percentage of occupancy of frames, with the background colouring representing maximum occupancy % (red) and minimum occupancy % (white). Receptor residue background colouring is according to their residue numbering (TM transmembrane helix, ECL3 extracellular loop 3). Table is based on data presented in Supplementary Table 4. Source data for panels d and e are provided in the Source Data file.
(§2) An HA signal peptide was inserted in place of the native signal peptide of the receptors and a FLAG epitope was incorporated into the receptor N-terminus immediately after the signal peptide. A His tag was fused to C-terminus of the receptor. 3C protease cleavage sites were inserted between both the FLAG and His tags and the receptor. […] The following PAC1R and VPAC1R mutants were also generated using Quikchange mutagenesis: PAC1R C25A, PAC1R C219A, PAC1R C25A/C219A, VPAC1R C37A and VPAC1R C208A. For all PAC1R constructs, we used the PAC1R null (PAC1n) splice variant. A construct containing N-terminal NLuc immediately after the native signal peptide of PAC1R was also generated in pcDNA3.1.
(§3) COS-7 cells were used for the chimeric peptide and cysteine mutagenesis pharmacological assays due to their lack of endogenous expression of PAC1R and receptor activity-modifying proteins, reported to potentially heterodimerize with PAC1R and VPAC1R[42]. […] COS-7 cells were plated in 10 cm dishes at approximately 1 million cells/dish. Cells were transfected 24 h later, with 5 µg of either WT or mutant PAC1R or VPAC1R receptor DNA. […]
(§4) The reaction was terminated after 30 min by aspiration of the buffer and addition of 50 μl of ice-cold ethanol. […] The plates were read using an EnVision plate reader with excitation at 320 nm and emission at 615 nm[45].
(§5) The pharmacological data in figures and tables are reported as mean + standard error of the mean (SEM) with the number of biological replicates indicated in the figure and table legends where “n” represents the number of biological replicates performed. Concentration-response data were analyzed in GraphPad Prism version 9.4.0 using a three-parameter logistic curve to derive pEC50 values for the cyclic AMP accumulation. Competition binding data were analyzed in GraphPad Prism using the one site—Fit log IC50 model to derive pIC50 values. […]

M299^PAC1R/D301^PAC1R = details: cited from earlier work
Text: Nonetheless, the secondary engagement of the peptide N-terminus with ECL2/ECL3 appeared to coordinate interactions that preceded the movement of the far N-terminal residues deeper into the binding pocket. Unique residues in ECL2 that differ between the V ...

VPAC1R WT, C37A, C208A = experiment: cAMP accumulation, cysteine mutagenesis (Fig. 6d, Supplementary Fig. 13a-c); type: cell-based; details: for Difference in cAMP potency (pEC50) between WT and mutant VPAC1R: COS-7, mean of n = 3
Experimental: as §1, §2, §3, §4, §5

VPAC2R = details: cited from earlier work

maxadilan
agonist selectivity (PAC1R): PAC1R-selective agonist

PACAP38: PACAP38, a 38 amino acid peptide
Difference in cAMP potency (pEC50) between WT and mutant PAC1R ([1]; C25A C219A): -0.4376
Difference in cAMP potency (pEC50) between WT and mutant PAC1R ([1]; C25A): -0.9347
Difference in cAMP potency (pEC50) between WT and mutant PAC1R ([1]; C219A): -0.4471
Difference in cAMP potency (pEC50) between WT and mutant PAC1R ([1]; WT): 0
PACAP38-mediated cAMP production with alanine mutation of M299/D301 PAC1R (M299^PAC1R/D301^PAC1R): reduced PACAP38-mediated cAMP production
Difference in cAMP potency (pEC50) between WT and mutant VPAC1R (VPAC1R WT, C37A, C208A; C37A): -0.5843
Difference in cAMP potency (pEC50) between WT and mutant VPAC1R (VPAC1R WT, C37A, C208A; C208A): -0.568
reduction in cAMP potency at single cysteine mutants of either receptor, compared with VIP (VPAC1R WT, C37A, C208A; VPAC1R and PAC1R single mutants (Fig. 6d, e), only significant for PACAP27 at C37A VPAC1R or C25A PAC1R): much smaller reduction in potency
Difference in cAMP potency (pEC50) between WT and mutant VPAC1R (VPAC1R WT, C37A, C208A; WT): 0

pituitary adenylate cyclase-activating polypeptide [PACAP]
VPAC2R affinity (VPAC2R): high affinity
